These are literature values, as cited in publication PMC9088311, “Cyclic Thiosulfonates for Thiol-Mediated Uptake: Cascade Exchangers, Transporters, Inhibitors” (JACS Au, 2022).

The test system of this data set is lentivirus with D614G SC2 spike protein, A549 cells overexpressing ACE2 and TMPRSS2. The conditions noted are these: 50 μM; cited from earlier work.

Take `O=S1(=O)C[C@H](O)[C@H](O)CS1` (stereo in doubt) [Compound 3, (4S,5R)-4,5-dihydroxy-1,2-dithiane-1,1-dioxide]: the “inhibition of luciferase expression, thus SC2 lentivector entry” value is on record as “≈ 60%”.
